From patent publication US10183943B2, “Heterocyclic compounds and their use in preventing or treating bacterial infections” (MUTABILIS, priority 2015, dated 2019)
Structures can show the parent of a compound that is named as a salt.

How the values were obtained:
E. cloacae P99 (AmpC) = assay: MIC of compounds alone, broth microdilution; type: cell-based; details: Enterobacter cloacae; strain P99 (E. cloacae); read-out: MIC compounds of the invention alone
Protocol: (§1) Method 2: MIC of Compounds and Synergy with Ceftazidime Against Bacterial Isolates (Table 2 and 3)
(§2) Compounds of the present invention were assessed against genotyped bacterial strains alone or in combination with the β-lactam ceftazidime (CAZ). In the assays, MICs of said compounds, or of ceftazidime at fixed concentrations of said compounds were determined by the broth microdilution method according to the Clinical Laboratory Standards Institute (CLSI-M7-A7). Briefly, compounds alone according to the invention were prepared in DMSO and spotted (2 μL each) on sterile polystyrene plates (Corning, 3788). Compounds and ceftazidime dilutions were prepared in DMSO and spotted (1 μL each) on sterile polystyrene plates (Corning, 3788). Log phase bacterial suspensions were adjusted to a final density of 5×10^5 cfu/mL in cation-adjusted Mueller-Hinton broth (Becton-Dickinson) and added to each well (98 μL). Microplates were incubated for 16-20 h at 35° C. in ambient air. The MIC of the compounds was defined as the lowest concentration of said compounds that prevented bacterial growth as read by visual inspection. The MIC of ceftazidime at each compound concentration was defined as the lowest concentration of ceftazidime that prevented bacterial growth as read by visual inspection.

[1] = test system: P. aeruginosa CIP107051 (TEM-24); assay: MIC of compounds alone, broth microdilution; type: cell-based; details: Pseudomonas aeruginosa; strain CIP107051 (P. aeruginosa); read-out: MIC compounds of the invention alone
Protocol: as §1, §2

[2] = test system: K. pneumoniae 6299 (TEM-1, SHV-11, OXA-163); assay: MIC of compounds alone, broth microdilution; type: cell-based; details: Klebsiella pneumoniae; strain 6299 (K. pneumoniae); read-out: MIC compounds of the invention alone
Protocol: as §1, §2

[3] = test system: E. coli 190317 (TEM-1, SHV-12, CTX-M-15, OXA-1); assay: MIC of compounds alone, broth microdilution; type: cell-based; details: Escherichia coli, read-out: MIC compounds of the invention alone
Protocol: as §1, §2

[4] = test system: E. coli 131119 (TEM-1, OXA-48); assay: MIC of compounds alone, broth microdilution; type: cell-based; details: Escherichia coli; strain 131119 (E. coli); read-out: MIC compounds of the invention alone
Protocol: as §1, §2

E. coli RGN238 (OXA-1) = assay: MIC of compounds alone, broth microdilution; type: cell-based; details: Escherichia coli; strain RGN238 (E. coli); read-out: MIC compounds of the invention alone
Protocol: as §1, §2

[5] = test system: K. pneumoniae BAA-1898 (TEM-1, SHV-11, SHV-12, KPC-2); assay: MIC of compounds alone, broth microdilution; type: cell-based; details: Klebsiella pneumoniae, BAA1898; strain BAA-1898 (K. pneumoniae); read-out: MIC compounds of the invention alone
Protocol: as §1, §2

AmpC P. aeruginosa = AmpC P. aeruginosa (Pseudomonas aeruginosa, UniProt P24735); assay: β-lactamase inhibitory activity, determination of IC50 (nitrocefin hydrolysis)
TEM-1 = molecular target: T1, TEM-1 (Escherichia coli, UniProt P62593); assay: as above; type: biochemical
T1 construct: made in house; host or cells: E. coli

KPC-2 = molecular target: T2, KPC-2 (Klebsiella pneumoniae, UniProt Q9F663); assay: as above; type: biochemical; details: class (A); nitrocefin 200 μM, 30 min pre-incubation; read-out: IC50 β-lactamase KPC-2
T2 construct: made in house; host or cells: E. coli

OXA-15 = molecular target: T3, OXA-15 (Pseudomonas aeruginosa, UniProt Q51574); assay: biochemical
T3 construct: made in house; host or cells: E. coli

OXA-11 = molecular target: T4, OXA-11 (Pseudomonas aeruginosa, UniProt Q06778); assay: β-lactamase inhibitory activity, determination of IC50 (nitrocefin hydrolysis); type: biochemical
T4 construct: made in house; host or cells: E. coli

OXA-48 = molecular target: T5, OXA-48 (Klebsiella pneumoniae, UniProt Q6XEC0); assay: as above; type: biochemical; details: class (D); nitrocefin 200 μM, 30 min pre-incubation; read-out: IC50 β-lactamase OXA-48
T5 construct: made in house; host or cells: E. coli

CTX-M-15 = molecular target: T6, CTX-M-15 (Escherichia coli, UniProt Q9EXV5); assay: as above; type: biochemical; details: class (A); nitrocefin 200 μM, 30 min pre-incubation; read-out: IC50 β-lactamase CTX-M-15
T6 construct: made in house; host or cells: E. coli

SHV-1 = molecular target: T7, SHV-1 (Klebsiella pneumoniae, UniProt P0AD64); assay: as above; type: biochemical
T7 construct: made in house; host or cells: E. coli

OXA-1 = molecular target: T8, OXA-1 (Escherichia coli, UniProt P13661); assay: as above; type: biochemical; details: class (D); nitrocefin 200 μM, 30 min pre-incubation; read-out: IC50 β-lactamase OXA-1
T8 construct: made in house; host or cells: E. coli

AmpC (P99) = AmpC (P99) (Enterobacter cloacae, UniProt P05364); assay: as above
[6] = test system: K. pneumoniae UFR39 (CTX-M-15, NDM-1); assay: MIC of compounds alone, broth microdilution; type: cell-based; details: Klebsiella pneumoniae; strain UFR39 (K. pneumoniae); read-out: MIC compounds of the invention alone
Protocol: as §1, §2

AmpC (P99), sequence (P05364 21-381): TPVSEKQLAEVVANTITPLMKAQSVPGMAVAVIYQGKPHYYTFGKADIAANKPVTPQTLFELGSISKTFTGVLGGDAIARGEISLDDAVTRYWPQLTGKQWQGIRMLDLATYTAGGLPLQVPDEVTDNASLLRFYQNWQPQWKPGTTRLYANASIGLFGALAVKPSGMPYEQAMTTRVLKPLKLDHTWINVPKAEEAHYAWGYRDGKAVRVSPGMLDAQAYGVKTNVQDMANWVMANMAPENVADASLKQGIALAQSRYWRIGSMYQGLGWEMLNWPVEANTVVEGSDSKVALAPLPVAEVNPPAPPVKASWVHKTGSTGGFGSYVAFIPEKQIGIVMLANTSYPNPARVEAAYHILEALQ
T1 sequence (P62593 24-286 limits assumed): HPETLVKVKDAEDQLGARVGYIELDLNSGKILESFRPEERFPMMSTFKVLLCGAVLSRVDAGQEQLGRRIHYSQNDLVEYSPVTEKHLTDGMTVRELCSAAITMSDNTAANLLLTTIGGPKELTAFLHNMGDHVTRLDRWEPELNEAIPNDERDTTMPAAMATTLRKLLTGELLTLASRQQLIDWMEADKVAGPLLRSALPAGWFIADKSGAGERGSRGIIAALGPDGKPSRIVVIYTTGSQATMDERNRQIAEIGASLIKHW
T8 sequence (P13661 26-276): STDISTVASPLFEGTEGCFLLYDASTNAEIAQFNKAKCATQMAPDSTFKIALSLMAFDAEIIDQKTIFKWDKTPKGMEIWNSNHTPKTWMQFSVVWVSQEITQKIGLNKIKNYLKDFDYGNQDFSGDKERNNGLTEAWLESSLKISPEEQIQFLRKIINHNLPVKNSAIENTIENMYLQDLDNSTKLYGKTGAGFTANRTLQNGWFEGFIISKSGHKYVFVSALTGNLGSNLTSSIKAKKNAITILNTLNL
T6 sequence (Q9EXV5 entry or part of it): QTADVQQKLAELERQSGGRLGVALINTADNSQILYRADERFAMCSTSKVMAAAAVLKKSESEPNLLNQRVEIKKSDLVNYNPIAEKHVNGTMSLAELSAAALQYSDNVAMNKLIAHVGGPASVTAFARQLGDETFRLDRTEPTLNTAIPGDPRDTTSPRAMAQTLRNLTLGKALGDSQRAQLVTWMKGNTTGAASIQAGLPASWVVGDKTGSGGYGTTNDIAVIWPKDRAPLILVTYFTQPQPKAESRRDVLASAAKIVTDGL
T4 sequence (Q06778 21-266): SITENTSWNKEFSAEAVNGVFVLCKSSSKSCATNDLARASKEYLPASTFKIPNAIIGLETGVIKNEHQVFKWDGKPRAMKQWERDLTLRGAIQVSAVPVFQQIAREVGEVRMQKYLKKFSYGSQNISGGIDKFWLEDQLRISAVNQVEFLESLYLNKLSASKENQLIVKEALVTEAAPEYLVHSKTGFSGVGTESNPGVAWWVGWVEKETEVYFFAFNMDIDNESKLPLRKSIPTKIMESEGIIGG
AmpC P. aeruginosa, sequence (P24735 27-397): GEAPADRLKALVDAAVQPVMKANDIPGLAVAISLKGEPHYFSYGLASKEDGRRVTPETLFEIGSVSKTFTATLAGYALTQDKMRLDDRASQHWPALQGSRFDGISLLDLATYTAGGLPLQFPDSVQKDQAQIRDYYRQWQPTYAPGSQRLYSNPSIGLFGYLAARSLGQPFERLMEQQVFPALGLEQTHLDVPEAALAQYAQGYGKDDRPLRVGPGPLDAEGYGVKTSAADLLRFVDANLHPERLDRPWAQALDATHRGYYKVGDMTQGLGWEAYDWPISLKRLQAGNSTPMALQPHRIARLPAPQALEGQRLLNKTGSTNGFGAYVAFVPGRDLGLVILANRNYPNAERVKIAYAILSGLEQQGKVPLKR
T3 sequence (Q51574 22-275): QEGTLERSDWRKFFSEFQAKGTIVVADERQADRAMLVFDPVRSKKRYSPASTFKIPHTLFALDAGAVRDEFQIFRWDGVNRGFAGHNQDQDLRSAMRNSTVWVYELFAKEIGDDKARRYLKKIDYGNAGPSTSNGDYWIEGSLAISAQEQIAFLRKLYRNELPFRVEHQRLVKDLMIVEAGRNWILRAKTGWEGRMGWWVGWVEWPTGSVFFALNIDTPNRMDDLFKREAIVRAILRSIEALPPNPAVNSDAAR
T5 sequence (Q6XEC0 23-265 limits assumed): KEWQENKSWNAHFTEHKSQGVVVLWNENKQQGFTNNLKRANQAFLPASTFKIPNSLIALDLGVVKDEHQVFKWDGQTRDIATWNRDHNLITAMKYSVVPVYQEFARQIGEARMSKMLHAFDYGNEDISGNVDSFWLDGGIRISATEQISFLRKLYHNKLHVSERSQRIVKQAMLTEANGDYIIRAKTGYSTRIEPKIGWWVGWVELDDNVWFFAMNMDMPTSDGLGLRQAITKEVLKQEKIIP
T7 sequence (P0AD64 22-286): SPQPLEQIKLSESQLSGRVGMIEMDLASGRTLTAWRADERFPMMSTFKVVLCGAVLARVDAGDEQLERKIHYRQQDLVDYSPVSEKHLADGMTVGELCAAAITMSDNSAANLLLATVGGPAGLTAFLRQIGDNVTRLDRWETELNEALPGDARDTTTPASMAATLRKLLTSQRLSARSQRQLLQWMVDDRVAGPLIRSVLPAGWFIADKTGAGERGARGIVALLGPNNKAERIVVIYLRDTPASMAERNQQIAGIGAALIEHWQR
T2 sequence (Q9F663 25-293 limits assumed): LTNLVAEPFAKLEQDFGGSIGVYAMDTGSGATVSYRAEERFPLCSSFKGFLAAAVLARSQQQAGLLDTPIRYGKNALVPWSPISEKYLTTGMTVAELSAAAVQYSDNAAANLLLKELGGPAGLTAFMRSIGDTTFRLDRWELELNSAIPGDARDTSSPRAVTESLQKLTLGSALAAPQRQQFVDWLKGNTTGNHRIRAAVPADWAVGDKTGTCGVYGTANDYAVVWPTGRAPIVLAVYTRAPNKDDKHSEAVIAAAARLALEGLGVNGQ

## O=C1N2CC(c3nc4ccccc4s3)=CC(C2)N1OS(=O)(=O)[O-].[Na+] (centres unmarked) [Example 27, Sodium [3-(1,3-benzothiazol-2-yl)-7-oxo-1,6-diazabicyclo[3.2.1]oct-3-en-6-yl] sulfate]
E. cloacae P99 (AmpC)
  MIC: > 32 µg/mL
[1]
  MIC: > 32 µg/mL
[2]
  MIC: > 32 µg/mL
[3]
  MIC: > 32 µg/mL
[4]
  MIC: > 32 µg/mL
E. coli RGN238 (OXA-1)
  MIC: > 32 µg/mL
[5]
  MIC: > 32 µg/mL
AmpC P. aeruginosa
  IC50: 0.068 µM
TEM-1
  IC50: 0.00021 µM
KPC-2
  IC50: 0.0027 µM
OXA-15
  IC50: 0.099 µM
OXA-11
  IC50: 0.15 µM
OXA-48
  IC50: 0.0064 µM
CTX-M-15
  IC50: 0.0014 µM
SHV-1
  IC50: 0.0021 µM
OXA-1
  IC50: 0.56 µM
AmpC (P99)
  IC50: 0.0091 µM

## Cn1cc(C2=CC3CN(C2)C(=O)N3OS(=O)(=O)[O-])ccc1=O.[Na+] (centres unmarked) [Example 28, Sodium [3-(1-methyl-6-oxo-3-pyridyl)-7-oxo-1,6-diazabicyclo[3.2.1]oct-3-en-6-yl] sulfate]
E. cloacae P99 (AmpC)
  MIC: > 32 µg/mL
[1]
  MIC: > 32 µg/mL
[2]
  MIC: > 32 µg/mL
[3]
  MIC: > 32 µg/mL
[4]
  MIC: > 32 µg/mL
E. coli RGN238 (OXA-1)
  MIC: > 32 µg/mL
[5]
  MIC: > 32 µg/mL
AmpC P. aeruginosa
  IC50: 0.52 µM
TEM-1
  IC50: 0.0016 µM
KPC-2
  IC50: 0.0065 µM
OXA-15
  IC50: 0.018 µM
OXA-11
  IC50: 0.43 µM
OXA-48
  IC50: 0.054 µM
CTX-M-15
  IC50: 0.0044 µM
SHV-1
  IC50: 0.0038 µM
OXA-1
  IC50: 1 µM
AmpC (P99)
  IC50: 0.077 µM

## O=C1N2CC=C(c3cnsc3)C(C2)N1OS(=O)(=O)[O-].[Na+] (centres unmarked) [Example 29, Sodium [4-(isothiazol-4-yl)-7-oxo-1,6-diazabicyclo[3.2.1]oct-3-en-6-yl] sulfate]
E. cloacae P99 (AmpC)
  MIC: > 32 µg/mL
[1]
  MIC: > 32 µg/mL
[2]
  MIC: > 32 µg/mL
[3]
  MIC: > 32 µg/mL
[4]
  MIC: > 32 µg/mL
E. coli RGN238 (OXA-1)
  MIC: > 32 µg/mL
[5]
  MIC: > 32 µg/mL
AmpC P. aeruginosa
  IC50: 1.2 µM
TEM-1
  IC50: 0.011 µM
KPC-2
  IC50: 0.15 µM
OXA-15
  IC50: 0.091 µM
OXA-11
  IC50: 1.7 µM
OXA-48
  IC50: 0.0028 µM
CTX-M-15
  IC50: 0.0058 µM
SHV-1
  IC50: 0.02 µM
OXA-1
  IC50: 0.33 µM
AmpC (P99)
  IC50: 0.95 µM

## O=C1N2CC=C(c3cscn3)C(C2)N1OS(=O)(=O)[O-].[Na+] (centres unmarked) [Example 31, sodium [4-(thiazol-4-yl)-7-oxo-1,6-diazabicyclo[3.2.1]oct-3-en-6-yl] sulfate]
E. cloacae P99 (AmpC)
  MIC: 16 µg/mL
[1]
  MIC: > 32 µg/mL
[2]
  MIC: > 32 µg/mL
[3]
  MIC: 16 µg/mL
[4]
  MIC: 16 µg/mL
E. coli RGN238 (OXA-1)
  MIC: > 32 µg/mL
[5]
  MIC: > 32 µg/mL
AmpC P. aeruginosa
  IC50: 1.5 µM
TEM-1
  IC50: 0.0049 µM
KPC-2
  IC50: 0.36 µM
OXA-15
  IC50: 0.097 µM
OXA-11
  IC50: 0.99 µM
OXA-48
  IC50: 0.0023 µM
CTX-M-15
  IC50: 0.0055 µM
SHV-1
  IC50: 0.011 µM
OXA-1
  IC50: 1.1 µM
AmpC (P99)
  IC50: 0.94 µM

## NCc1ncc(C2=CCN3CC2N(OS(=O)(=O)O)C3=O)s1 (centres unmarked) [Example 32, [4-[2-(aminomethyl)thiazol-5-yl]-7-oxo-1,6-diazabicyclo[3.2.1]oct-3-en-6-yl] hydrogen sulfate]
E. cloacae P99 (AmpC)
  MIC: 16 µg/mL
[1]
  MIC: > 32 µg/mL
[2]
  MIC: > 32 µg/mL
[3]
  MIC: 8 µg/mL
[4]
  MIC: > 32 µg/mL
E. coli RGN238 (OXA-1)
  MIC: > 32 µg/mL
[5]
  MIC: > 32 µg/mL
AmpC P. aeruginosa
  IC50: 3.2 µM
TEM-1
  IC50: 0.0075 µM
KPC-2
  IC50: 0.3 µM
OXA-15
  IC50: 0.17 µM
OXA-11
  IC50: 3.5 µM
OXA-48
  IC50: 0.0089 µM
CTX-M-15
  IC50: 0.014 µM
SHV-1
  IC50: 0.033 µM
OXA-1
  IC50: 0.67 µM
AmpC (P99)
  IC50: 4.4 µM

## COc1ncc(C2=CC3CN(C2)C(=O)N3OS(=O)(=O)[O-])s1.[Na+] (centres unmarked) [Example 39, Sodium [3-(2-methoxythiazol-5-yl)-7-oxo-1,6-diazabicyclo[3.2.1]oct-3-en-6-yl] sulfate]
E. cloacae P99 (AmpC)
  MIC: > 32 µg/mL
[1]
  MIC: > 32 µg/mL
[6]
  MIC: > 32 µg/mL
[2]
  MIC: > 32 µg/mL
[3]
  MIC: > 32 µg/mL
[5]
  MIC: > 32 µg/mL
AmpC P. aeruginosa
  IC50: 0.24 µM
TEM-1
  IC50: 0.0014 µM
KPC-2
  IC50: 0.011 µM
OXA-15
  IC50: 0.079 µM
OXA-11
  IC50: 0.14 µM
OXA-48
  IC50: 0.00099 µM
CTX-M-15
  IC50: 0.00062 µM
SHV-1
  IC50: 0.0032 µM
OXA-1
  IC50: 0.22 µM
AmpC (P99)
  IC50: 0.046 µM
